In ChEMBL document CHEMBL1201862, “PubChem BioAssay data set” (2004):
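Test compounds were applied to cells in 96-well plates for 48 hours at 5 doses. GI50 is the concentration that inhibits growth by half.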 Activity calls are given as the source filed them. Rule as the data show it: active = GI50 up to about 1.1 µM and inactive = higher.

What was measured:
Assay in all cases: NCI-60 cell line screen, 48 h
COLO 205 = system: COLO 205
KM12 = system: KM12
SF-268 = system: SF-268
PC-3 = system: PC-3
SN12C = system: SN12C
SK-MEL-28 = system: SK-MEL-28
UO-31 = system: UO-31
786-0 = system: 786-0
SW-620 = system: SW-620
A549 = system: A549
SK-MEL-5 = system: SK-MEL-5
UACC-62 = system: UACC-62
NCI/ADR-RES = system: NCI/ADR-RES
SNB-75 = system: SNB-75
RPMI-8226 = system: RPMI-8226
MDA-N = system: MDA-N
MCF7 = system: MCF7
EKVX = system: EKVX
OVCAR-4 = system: OVCAR-4
HOP-62 = system: HOP-62
UACC-257 = system: UACC-257
SK-MEL-2 = system: SK-MEL-2
MDA-MB-231 = system: MDA-MB-231
OVCAR-8 = system: OVCAR-8
SR = system: SR
HOP-92 = system: HOP-92
SF-295 = system: SF-295
SK-OV-3 = system: SK-OV-3
Hs-578T = system: Hs-578T
K562 = system: K562
HCT-116 = system: HCT-116
A498 = system: A498
MDA-MB-435 = system: MDA-MB-435
T47D = system: T47D
M14 = system: M14
HCC 2998 = system: HCC 2998
NCI-H460 = system: NCI-H460
HT-29 = system: HT-29
NCI-H23 = system: NCI-H23
MOLT-4 = system: MOLT-4
SF-539 = system: SF-539
CAKI-1 = system: CAKI-1
U-251 = system: U-251
DU-145 = system: DU-145
OVCAR-3 = system: OVCAR-3
TK-10 = system: TK-10
OVCAR-5 = system: OVCAR-5
LOX IMVI = system: LOX IMVI
IGROV-1 = system: IGROV-1
RXF 393 = system: RXF 393
Malme-3M = system: Malme-3M
NCI-H522 = system: NCI-H522
ACHN = system: ACHN
SNB-19 = system: SNB-19
BT-549 = system: BT-549
HCT-15 = system: HCT-15
NCI-H226 = system: NCI-H226

## N#CNC(=N)Nc1ccc(Cl)cc1
COLO 205
  GI50: > 100 µM (inactive)
KM12
  GI50: > 100 µM (inactive)
SF-268
  GI50: > 100 µM (inactive)
PC-3
  GI50: > 100 µM (inactive)
SN12C
  GI50: > 100 µM (inactive)
SK-MEL-28
  GI50: > 100 µM (inactive)
UO-31
  GI50: > 100 µM (inactive)
786-0
  GI50: > 100 µM (inactive)
SW-620
  GI50: > 100 µM (inactive)
A549
  GI50: > 100 µM (inactive)
SK-MEL-5
  GI50: > 100 µM (inactive)
UACC-62
  GI50: > 100 µM (inactive)
NCI/ADR-RES
  GI50: > 100 µM (inactive)
SNB-75
  GI50: > 100 µM (inactive)
RPMI-8226
  GI50: > 100 µM (inactive)
MDA-N
  GI50: > 100 µM (inactive)
MCF7
  GI50: > 100 µM (inactive)
EKVX
  GI50: > 100 µM (inactive)
OVCAR-4
  GI50: > 100 µM (inactive)
HOP-62
  GI50: > 100 µM (inactive)
UACC-257
  GI50: > 100 µM (inactive)
SK-MEL-2
  GI50: > 100 µM (inactive)
MDA-MB-231
  GI50: > 100 µM (inactive)
OVCAR-8
  GI50: > 100 µM (inactive)
SR
  GI50: > 100 µM (inactive)
HOP-92
  GI50: > 100 µM (inactive)
SF-295
  GI50: > 100 µM (inactive)
SK-OV-3
  GI50: > 100 µM (inactive)
Hs-578T
  GI50: > 100 µM (inactive)
K562
  GI50: > 100 µM (inactive)
HCT-116
  GI50: > 100 µM (inactive)
A498
  GI50: > 100 µM (inactive)
MDA-MB-435
  GI50: > 100 µM (inactive)
T47D
  GI50: > 100 µM (inactive)
M14
  GI50: > 100 µM (inactive)
HCC 2998
  GI50: > 100 µM (inactive)
NCI-H460
  GI50: > 100 µM (inactive)
HT-29
  GI50: > 100 µM (inactive)
NCI-H23
  GI50: > 100 µM (inactive)
MOLT-4
  GI50: 36.4 µM (inactive)
SF-539
  GI50: > 100 µM (inactive)
CAKI-1
  GI50: > 100 µM (inactive)
U-251
  GI50: > 100 µM (inactive)
DU-145
  GI50: > 100 µM (inactive)
OVCAR-3
  GI50: > 100 µM (inactive)
TK-10
  GI50: > 100 µM (inactive)
OVCAR-5
  GI50: > 100 µM (inactive)
LOX IMVI
  GI50: > 100 µM (inactive)
IGROV-1
  GI50: > 100 µM (inactive)
RXF 393
  GI50: > 100 µM (inactive)
Malme-3M
  GI50: > 100 µM (inactive)
NCI-H522
  GI50: > 100 µM (inactive)
ACHN
  GI50: > 100 µM (inactive)
SNB-19
  GI50: > 100 µM (inactive)
BT-549
  GI50: > 100 µM (inactive)
HCT-15
  GI50: > 100 µM
NCI-H226
  GI50: 85.1 µM (inactive)
